Here are results for eleven compounds from patent US5416191A, “Bradykinin antagonists” (Cortech, Inc., priority 1993, dated 1995).

Like-named read-outs stand apart in the source and are kept apart here. Square brackets hold non-standard residues; d marks the D form. Peptide text beside a SMILES is read from it. * marks the point of attachment. Hyp = O=C(O)[C@@H]1C[C@@H](O)CN1; X8 = O=C1CC(*)C(=O)N1

The target of experiment [1] is T1, bradykinin receptor of the B2 class (guinea-pig ileum) (Cavia porcellus, UniProt O70526).
T1 sequence (O70526 1-372): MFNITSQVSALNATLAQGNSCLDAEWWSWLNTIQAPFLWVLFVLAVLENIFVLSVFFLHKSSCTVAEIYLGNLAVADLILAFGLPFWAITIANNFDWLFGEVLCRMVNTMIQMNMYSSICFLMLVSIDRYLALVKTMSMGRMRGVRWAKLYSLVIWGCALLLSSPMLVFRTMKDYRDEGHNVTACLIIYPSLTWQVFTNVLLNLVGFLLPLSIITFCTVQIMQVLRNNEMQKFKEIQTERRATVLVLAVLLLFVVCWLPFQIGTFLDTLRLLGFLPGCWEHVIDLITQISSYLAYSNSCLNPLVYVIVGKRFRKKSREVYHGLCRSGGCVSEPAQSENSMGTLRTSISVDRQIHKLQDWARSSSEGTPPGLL

Experiment [2] has as its target T2, bradykinin receptor of the B2 class (rat uterus) (Rattus norvegicus, UniProt P25023).
T2 construct: concentration effect curves to bradykinin (BK) on rat uterus in vitro; from tissue; host or cells: rat uterus
T2 sequence (P25023 1-396): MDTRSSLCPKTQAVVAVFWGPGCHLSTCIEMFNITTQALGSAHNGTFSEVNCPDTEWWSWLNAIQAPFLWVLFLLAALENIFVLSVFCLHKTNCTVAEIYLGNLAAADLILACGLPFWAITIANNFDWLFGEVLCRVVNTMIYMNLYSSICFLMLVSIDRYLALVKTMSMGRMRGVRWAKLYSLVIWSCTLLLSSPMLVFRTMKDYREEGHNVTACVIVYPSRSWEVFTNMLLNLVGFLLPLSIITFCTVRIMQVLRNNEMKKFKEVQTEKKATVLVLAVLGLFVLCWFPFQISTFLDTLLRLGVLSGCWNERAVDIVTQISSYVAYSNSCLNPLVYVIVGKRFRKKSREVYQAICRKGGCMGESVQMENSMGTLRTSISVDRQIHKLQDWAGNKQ
Kind of experiment: Rat uterus (RU) in vitro, antagonism of bradykinin. On the procedure:
Thus in vitro studies were performed on standard assay systems, namely, guinea-pig ileum (GPI), rat uterus (RU) and rabbit jugular vein (RJV). […] The PA2 can be defined as the negative logarithm of the molar concentration of the antagonist in the presence of which the potency of the agonist is reduced two-fold, i.e. twice the amount of agonist is required to produce a given response in the presence of, than in the absence of, the antagonist. A high potency of antagonism is indicated by a high PA2 value, i.e., a low concentration of antagonist is effective.
The percentage recovery (% Rec) was also determined for compounds with respect to each assay.
With respect to duration of activity, it is noted that after exposure to the highest concentration of antagonist, each tissue was washed extensively and then assessed for recovery from the antagonist effect.
Potency in the rat uterus assay was assessed as described above and PA2 values determined.

The mark [3] stands for this setting: Table C, rat uterus, P.A. = Partial Agonist, read-out: pA2 MONOMER (converted).
Setting [4] is: Table C, rat uterus, read-out: pA2 DIMER (converted).

Consider `CC(C)C[C@H](NC(=O)[C@@H](Cc1ccccc1)NC(=O)[C@H](CSSC[C@H](NC(=O)[C@H](Cc1ccccc1)NC(=O)CNC(=O)[C@@H]1C[C@@H](O)CN1C(=O)[C@@H]1CCCN1C(=O)[C@H](CCCNC(=N)N)NC(=O)[C@H](N)CCCNC(=N)N)C(=O)N[C@H](Cc1ccccc1)C(=O)N[C@@H](CC(C)C)C(=O)N[C@@H](CCCNC(=N)N)C(=O)O)NC(=O)[C@H](Cc1ccccc1)NC(=O)CNC(=O)[C@@H]1C[C@@H](O)CN1C(=O)[C@@H]1CCCN1C(=O)[C@H](CCCNC(=N)N)NC(=O)[C@H](N)CCCNC(=N)N)C(=O)N[C@@H](CCCNC(=N)N)C(=O)O` [CP-0138] (HELM PEPTIDE1{[dR].R.P.[Hyp].G.F.C.[dF].L.R}|PEPTIDE2{[dR].R.P.[Hyp].G.F.C.[dF].L.R}$PEPTIDE1,PEPTIDE2,7:R3-7:R3$$$V2.0), for which the Kb in experiment [1] was roughly 631 nM; in experiment [2] (Table E, read-out: RAT UTERUS pA2 (converted)) it was 39.8 nM. In experiment [2] (Table E), the “RAT UTERUS % RECOVERED” value is given as 100%.
Compound `CC(C)C[C@H](NC(=O)[C@@H](Cc1ccccc1)NC(=O)[C@H](CSC1CC(=O)NC1=O)NC(=O)[C@H](Cc1ccccc1)NC(=O)CNC(=O)[C@@H]1C[C@@H](O)CN1C(=O)[C@@H]1CCCN1C(=O)[C@H](CCCNC(=N)N)NC(=O)[C@H](N)CCCNC(=N)N)C(=O)N[C@@H](CCCNC(=N)N)C(=O)O` (stereo partly shown) [CP-0139] (H-[dR]RP[Hyp]GFC(X8)[dF]LR-OH) had a Kb in experiment [1] of roughly 79.4 nM.
Regarding `CC(C)C[C@H](NC(=O)[C@@H](Cc1ccccc1)NC(=O)[C@H](CO)NC(=O)[C@H](Cc1ccccc1)NC(=O)CNC(=O)[C@@H]1C[C@@H](O)CN1C(=O)[C@@H]1CCCN1C(=O)[C@H](CCCNC(=N)N)NC(=O)[C@@H](N)CS)C(=O)N[C@@H](CCCNC(=N)N)C(=O)O` [CP-0140] (HELM PEPTIDE1{C.R.P.[Hyp].G.F.S.[dF].L.R}$$$$V2.0), the Kb was roughly 316 nM in experiment [1] and 100 nM in experiment [2] (setting [3]). Also, the “% REC MONOMER” value in experiment [2] (Table C, rat uterus) turned out to be 50%.
In turn, `CC(C)C[C@H](NC(=O)[C@@H](Cc1ccccc1)NC(=O)[C@H](CO)NC(=O)[C@H](Cc1ccccc1)NC(=O)CNC(=O)[C@@H]1C[C@@H](O)CN1C(=O)[C@@H]1CCCN1C(=O)[C@H](CS)NC(=O)[C@H](N)CCCNC(=N)N)C(=O)N[C@@H](CCCNC(=N)N)C(=O)O` [CP-0141] (HELM PEPTIDE1{[dR].C.P.[Hyp].G.F.S.[dF].L.R}$$$$V2.0) had a Kb in experiment [1] of roughly 1000 nM.
Take `CC(C)C[C@H](NC(=O)[C@@H](Cc1ccccc1)NC(=O)[C@H](CO)NC(=O)[C@H](Cc1ccccc1)NC(=O)CNC(=O)[C@@H]1C[C@@H](O)CN1C(=O)[C@H](CS)NC(=O)[C@H](CCCNC(=N)N)NC(=O)[C@H](N)CCCNC(=N)N)C(=O)N[C@@H](CCCNC(=N)N)C(=O)O` [CP-0142] (HELM PEPTIDE1{[dR].R.C.[Hyp].G.F.S.[dF].L.R}$$$$V2.0): the Kb in experiment [1] is roughly 2000 nM; in experiment [2] (setting [3]), 398 nM. The “% REC MONOMER” value in experiment [2] (Table C, rat uterus) was found to be 80%.
The compound `CC(C)C[C@H](NC(=O)[C@@H](Cc1ccccc1)NC(=O)[C@H](CO)NC(=O)[C@H](Cc1ccccc1)NC(=O)CNC(=O)[C@H](CS)NC(=O)[C@@H]1CCCN1C(=O)[C@H](CCCNC(=N)N)NC(=O)[C@H](N)CCCNC(=N)N)C(=O)N[C@@H](CCCNC(=N)N)C(=O)O` [CP-0143] (HELM PEPTIDE1{[dR].R.P.C.G.F.S.[dF].L.R}$$$$V2.0) showed a Kb in experiment [1] of roughly 316 nM. In experiment [2] (Table C, rat uterus, P.A. = Partial Agonist), the “pA2 MONOMER” value is recorded as “P.A”.
With `CC(C)C[C@H](NC(=O)[C@@H](Cc1ccccc1)NC(=O)[C@H](CO)NC(=O)[C@H](CS)NC(=O)CNC(=O)[C@@H]1C[C@@H](O)CN1C(=O)[C@@H]1CCCN1C(=O)[C@H](CCCNC(=N)N)NC(=O)[C@H](N)CCCNC(=N)N)C(=O)N[C@@H](CCCNC(=N)N)C(=O)O` [CP-0144] (HELM PEPTIDE1{[dR].R.P.[Hyp].G.C.S.[dF].L.R}$$$$V2.0), the Kb was roughly 501 nM in experiment [1] and 63.1 nM in experiment [2] (setting [3]). Also, in experiment [2] (Table C, rat uterus), the “% REC MONOMER” value is reported as 95%.
Turning to `CC(C)C[C@H](NC(=O)[C@@H](Cc1ccccc1)NC(=O)[C@H](CO)NC(=O)[C@H](Cc1ccccc1)NC(=O)CNC(=O)[C@@H]1C[C@@H](O)CN1C(=O)[C@@H]1CCCN1C(=O)[C@H](CCCNC(=N)N)NC(=O)[C@H](N)CS)C(=O)N[C@@H](CCCNC(=N)N)C(=O)O` [CP-0149] (HELM PEPTIDE1{[dC].R.P.[Hyp].G.F.S.[dF].L.R}$$$$V2.0), the Kb was roughly 501 nM in experiment [1] and 79.4 nM in experiment [2] (setting [3]). The “% REC MONOMER” value in experiment [2] (Table C, rat uterus) is 75%.
With `CC(C)C[C@H](NC(=O)[C@@H](Cc1ccccc1)NC(=O)[C@H](CO)NC(=O)[C@H](Cc1ccccc1)NC(=O)CNC(=O)[C@@H]1C[C@@H](O)CN1C(=O)[C@@H]1CCCN1C(=O)[C@H](CCCNC(=N)N)NC(=O)[C@@H](N)CSC1CC(=O)N(CCCCCCN2C(=O)CC(SC[C@H](N)C(=O)N[C@@H](CCCNC(=N)N)C(=O)N3CCC[C@H]3C(=O)N3C[C@H](O)C[C@H]3C(=O)NCC(=O)N[C@@H](Cc3ccccc3)C(=O)N[C@@H](CO)C(=O)N[C@H](Cc3ccccc3)C(=O)N[C@@H](CC(C)C)C(=O)N[C@@H](CCCNC(=N)N)C(=O)O)C2=O)C1=O)C(=O)N[C@@H](CCCNC(=N)N)C(=O)O` (stereo partly shown) [CP-0152] (HELM PEPTIDE1{C.R.P.[Hyp].G.F.S.[dF].L.R}|PEPTIDE2{C.R.P.[Hyp].G.F.S.[dF].L.R}|CHEM1{[O=C1CC([*:1])C(=O)N1CCCCCCN1C(=O)CC([*:2])C1=O]}$PEPTIDE1,CHEM1,1:R3-1:R1|PEPTIDE2,CHEM1,1:R3-1:R2$$$V2.0), the figures for the Kb in experiment [1] and in experiment [2] (setting [4]) were roughly 316 nM and 12.6 nM, respectively. Also, the “% REC DIMER” value in experiment [2] (Table C, rat uterus) turned out to be 50%.
In the case of `CC(C)C[C@H](NC(=O)[C@@H](Cc1ccccc1)NC(=O)[C@H](CO)NC(=O)[C@H](Cc1ccccc1)NC(=O)CNC(=O)[C@@H]1C[C@@H](O)CN1C(=O)[C@@H]1CCCN1C(=O)[C@H](CSC1CC(=O)N(CCCCCCN2C(=O)CC(SC[C@H](NC(=O)[C@H](N)CCCNC(=N)N)C(=O)N3CCC[C@H]3C(=O)N3C[C@H](O)C[C@H]3C(=O)NCC(=O)N[C@@H](Cc3ccccc3)C(=O)N[C@@H](CO)C(=O)N[C@H](Cc3ccccc3)C(=O)N[C@@H](CC(C)C)C(=O)N[C@@H](CCCNC(=N)N)C(=O)O)C2=O)C1=O)NC(=O)[C@H](N)CCCNC(=N)N)C(=O)N[C@@H](CCCNC(=N)N)C(=O)O` (stereo partly shown) [CP-0153] (HELM PEPTIDE1{[dR].C.P.[Hyp].G.F.S.[dF].L.R}|PEPTIDE2{[dR].C.P.[Hyp].G.F.S.[dF].L.R}|CHEM1{[O=C1CC([*:1])C(=O)N1CCCCCCN1C(=O)CC([*:2])C1=O]}$PEPTIDE1,CHEM1,2:R3-1:R1|PEPTIDE2,CHEM1,2:R3-1:R2$$$V2.0), the Kb in experiment [1] was roughly 20 nM; in experiment [2] (setting [4]) it was 20 nM. The “% REC DIMER” value in experiment [2] (Table C, rat uterus) is 100%.
For `CC(C)C[C@H](NC(=O)[C@@H](Cc1ccccc1)NC(=O)[C@H](CO)NC(=O)[C@H](Cc1ccccc1)NC(=O)CNC(=O)[C@@H]1C[C@@H](O)CN1C(=O)[C@H](CSC1CC(=O)N(CCCCCCN2C(=O)CC(SC[C@H](NC(=O)[C@H](CCCNC(=N)N)NC(=O)[C@H](N)CCCNC(=N)N)C(=O)N3C[C@H](O)C[C@H]3C(=O)NCC(=O)N[C@@H](Cc3ccccc3)C(=O)N[C@@H](CO)C(=O)N[C@H](Cc3ccccc3)C(=O)N[C@@H](CC(C)C)C(=O)N[C@@H](CCCNC(=N)N)C(=O)O)C2=O)C1=O)NC(=O)[C@H](CCCNC(=N)N)NC(=O)[C@H](N)CCCNC(=N)N)C(=O)N[C@@H](CCCNC(=N)N)C(=O)O` (stereo partly shown) [CP-0154] (HELM PEPTIDE1{[dR].R.C.[Hyp].G.F.S.[dF].L.R}|PEPTIDE2{[dR].R.C.[Hyp].G.F.S.[dF].L.R}|CHEM1{[O=C1CC([*:1])C(=O)N1CCCCCCN1C(=O)CC([*:2])C1=O]}$PEPTIDE1,CHEM1,3:R3-1:R1|PEPTIDE2,CHEM1,3:R3-1:R2$$$V2.0), in that order: roughly 25.1 nM, 63.1 nM and 90%.
